Test [1] concerns murine mammary tumour cells. The following applies: mouse, in vivo; cited from earlier work.
The next test relates to human NSCLC. The note with it: in vitro; cited from earlier work.
The target in test [2] is T1, human Prostanoid EP4 Receptor (EP4) (Homo sapiens, UniProt P35408).
T1 construct: expressed in transfected cells; host or cells: HEK293 (G418 selection); membranes prepared by differential centrifugation
The test can be described thus: Prostanoid EP4 binding assay (3H-prostaglandin E2 displacement, cell membranes). The note with it: HEK293 cell membranes with human EP4, 3H-prostaglandin E2, 24° C.

Test [3] has as its target T2, human Prostanoid EP2 Receptor (EP2) (Homo sapiens, UniProt P43116).
T2 construct: expressed in transfected cells; host or cells: CHO (G418 selection)
Nature of the test: Prostanoid EP2 FLIPR assay (calcium flux, PGE2 addition). Type of test: cell-based. The note with it: CHO cells transfected with human EP2, Fluo-4 calcium dye. The procedure: (§1) HEK293 cells transfected with human Prostanoid EP4 Receptor (EP4) or CHO cells transfected with human Prostanoid EP2 Receptor (EP2) are maintained in DMEM supplemented with L-Glutamine, 10% FBS and 300 μg/ml G418. Cells are plated at 20,000 cells/well in black 384-well Poly-D-Lysine protein coating plate and incubated at 37° C., 5% CO2 for 24 h. Prior to the assay, calcium-sensitive dye Fluo-4 Direct™ (Molecular Devices) is reconstituted according to manufacturer instructions. The reconstituted dye was diluted in assay buffer (1× HBSS, 20 mM HEPES, and 2.5 mM Probenicid, pH 7.4). Growth media is removed and 20 μl of this diluted dye is added to each well at a final concentration of 2 μM. Plates are incubated for 50 min at 37° C. 5% C02 and 10 min at RT after dye addition. Testing compounds are diluted with DMSO to make 10-point 4-fold serial dilution. After the pre-treatment incubation, fluorescence intensity is measured on a FlexStation II fluorometric imaging plate reader (Molecular Devices). Relative fluorescence units (RFU) are measured before (20 readings) and after (40 readings) the PGE2 addition for a total 60 sec read time (Excitation=485 nm, Emission=525 nm). Data are analyzed and IC50 is calculated using GraphPad Prism 5 and the model “log(inhibitor) vs. response—Variable slope”.
(§2) Illustrative data for representative compounds are described in Table 2.

Test [4] addresses T1, human Prostanoid EP4 Receptor (EP4). Nature of the test: Prostanoid EP4 FLIPR assay (calcium flux, PGE2 addition). Type of test: cell-based. The following applies: HEK293 cells transfected with human EP4, Fluo-4 calcium dye. The method, then: as §1, §2
Test [5] relates to human inflammatory breast cancer cells. The note with it: Robertson et al. 2008; cited from earlier work.
Test [6] has as its system aberrant crypt foci and intestinal polyps. The following applies: mouse disease model; Mutoh et al. 2002; cited from earlier work.
In test [7] the test system is castration-resistant prostate cancer. The following applies: mouse xenograft disease model; Terada et al. 2010; cited from earlier work.

A value given as a limit tells only on which side of the number the result lay.

T1 sequence (P35408 whole entry): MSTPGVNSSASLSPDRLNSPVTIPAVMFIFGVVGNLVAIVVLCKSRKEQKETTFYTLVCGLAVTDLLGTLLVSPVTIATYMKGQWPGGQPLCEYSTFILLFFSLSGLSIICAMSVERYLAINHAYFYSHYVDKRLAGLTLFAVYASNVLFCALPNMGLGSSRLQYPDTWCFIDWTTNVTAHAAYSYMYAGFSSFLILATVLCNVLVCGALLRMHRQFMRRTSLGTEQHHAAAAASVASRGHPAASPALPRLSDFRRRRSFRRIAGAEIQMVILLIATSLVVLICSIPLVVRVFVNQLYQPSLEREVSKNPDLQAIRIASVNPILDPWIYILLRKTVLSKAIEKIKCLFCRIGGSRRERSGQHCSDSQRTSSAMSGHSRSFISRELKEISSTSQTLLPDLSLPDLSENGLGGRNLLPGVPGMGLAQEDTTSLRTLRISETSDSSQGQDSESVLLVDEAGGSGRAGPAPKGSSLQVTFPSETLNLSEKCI
T2 sequence (P43116 whole entry): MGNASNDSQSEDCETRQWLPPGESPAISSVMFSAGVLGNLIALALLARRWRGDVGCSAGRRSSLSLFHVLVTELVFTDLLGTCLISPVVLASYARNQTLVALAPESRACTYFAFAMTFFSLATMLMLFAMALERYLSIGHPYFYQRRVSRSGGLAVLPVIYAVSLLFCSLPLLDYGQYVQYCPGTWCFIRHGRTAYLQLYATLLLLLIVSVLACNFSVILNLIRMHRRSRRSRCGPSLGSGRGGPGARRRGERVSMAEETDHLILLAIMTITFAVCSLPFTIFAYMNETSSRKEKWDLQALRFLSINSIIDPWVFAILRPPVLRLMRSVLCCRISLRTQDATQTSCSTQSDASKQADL

`O=C(O)CC/C=C\CC[C@H]1[C@H](N2CCOCC2)C(=O)C[C@H]1OCc1ccc(-c2ccccc2)cc1` [AH-23848]: in test [1], the “metastasis of murine mammary tumour cells” value is listed as “reduced metastasis”. The “tumorigenic effects of PGE2 on human NSCLC growth” value in the test with human NSCLC is listed as “successfully inhibited”.

With `C[C@H](NC(=O)c1cnn2cccc(Cc3cccc(C(F)(F)F)c3)c12)c1ccc(C(=O)O)cc1` [Compound 3, 4-[(1S)-1-[[4-[[3-(trifluoromethyl)phenyl]methyl]pyrazolo[1,5-a]pyridine-3-carbonyl]amino]ethyl]benzoic acid], the inhibition constant (Ki) in test [2] was less than 100 nM. The IC50 in test [3] is greater than 1000 nM; in test [4], less than 100 nM.

On to `O=C(NC1CC2(C1)CC(C(=O)O)C2)c1cnn2cccc(Cc3cccc(C(F)(F)F)c3)c12` (stereo not drawn) [Compound 4, 2-[[4-[[3-(trifluoromethyl)phenyl]methyl]pyrazolo[1,5-a]pyridine-3-carbonyl]amino]spiro[3.3]heptane-6-carboxylic acid], for which the Ki in test [2] is less than 100 nM. Also, the IC50 in test [3] was greater than 1000 nM; in test [4], less than 100 nM.

For `C[C@H](NC(=O)c1n[nH]c2cccc(Cc3ccc(C(F)(F)F)cc3)c12)c1ccc(C(=O)O)cc1` [Compound 7, 4-[(1S)-1-[[4-[[4-(trifluoromethyl)phenyl]methyl]-1H-indazole-3-carbonyl]amino]ethyl]benzoic acid], the Ki in test [2] is less than 100 nM. Moreover, the IC50 was greater than 1000 nM in test [3] and less than 100 nM in test [4].

As to `O=C(NC1CC2(C1)CC(C(=O)O)C2)c1n[nH]c2cccc(Cc3ccc(C(F)(F)F)cc3)c12` (stereo not drawn) [Compound 8, 2-[[4-[[4-(trifluoromethyl)phenyl]methyl]-1H-indazole-3-carbonyl]amino]spiro[3.3]heptane-6-carboxylic acid], the Ki in test [2] is less than 100 nM. The IC50 in test [3] is greater than 1000 nM; in test [4], less than 100 nM.

`CCn1nc(C(=O)N[C@@H](C)c2ccc(C(=O)O)cc2)c2c(Cc3ccc(C(F)(F)F)cc3)cccc21` [Compound 9, 4-[(1S)-1-[[1-ethyl-4-[[4-(trifluoromethyl)phenyl]methyl]indazole-3-carbonyl]amino]ethyl]benzoic acid] gave an inhibitory constant (Ki) in test [2] of less than 100 nM. Moreover, the IC50 in test [3] was greater than 1000 nM; in test [4] it was less than 100 nM.

On to `CCn1nc2cccc(Cc3ccc(C(F)(F)F)cc3)c2c1C(=O)N[C@@H](C)c1ccc(C(=O)O)cc1` [Compound 10, 4-[(1S)-1-[[2-ethyl-4-[[4-(trifluoromethyl)phenyl]methyl]indazole-3-carbonyl]amino]ethyl]benzoic acid], for which, in test [2], the Ki was 100 to 499 nM. For the same compound, the values for the concentration for half-maximal inhibition (IC50) in test [3] and in test [4] were greater than 1000 nM and less than 100 nM, respectively.

In turn, `C[C@H](NC(=O)c1cnn2cccc(Cc3cc4ccccc4cn3)c12)c1ccc(C(=O)O)cc1` [Compound 12, 4-[(1S)-1-[[4-(3-isoquinolylmethyl)pyrazolo[1,5-a]pyridine-3-carbonyl]amino]ethyl]benzoic acid] returned an inhibitory constant (Ki) in test [2] of less than 100 nM. The IC50 in test [3] is greater than 1000 nM; in test [4], less than 100 nM.

In test [2], `O=C(O)CC12CC(NC(=O)c3cnn4cccc(Cc5ccc(C(F)(F)F)cc5)c34)(C1)C2` [Compound 15, 2-[3-[[4-[[4-(trifluoromethyl)phenyl]methyl]pyrazolo[1,5-a]pyridine-3-carbonyl]amino]-1-bicyclo[1.1.1]pentanyl]acetic acid] registered an inhibition constant (Ki) of less than 100 nM. Also, the IC50 in test [3] is greater than 1000 nM; in test [4], less than 100 nM.

For the compound `CCOc1c2c(c(OCC)c3ccccc13)C(=O)N(c1ccc(CC(=O)NS(=O)(=O)c3ccccc3)cc1)C2` [GW-627368X], the “proliferation and invasion of human inflammatory breast cancer cells” value in test [5] is “selectively inhibited both proliferation and invasion”.

For the compound `CC(C(=O)Nc1ccccc1Cc1ccccc1C(=O)O)c1cccc2ccccc12` (stereo not drawn) [ONO-AE2-227], the “formation of aberrant crypt foci and intestinal polyps” value in test [6] was “reduced the formation of aberrant crypt foci and intestinal polyps”.

On to `CC(C(=O)Nc1cc(C#N)ccc1CCCC(=O)O)c1ccc(F)c2ccccc12` (stereo not drawn) [ONO-AE3-208], for which, in test [7], the “castration-resistant prostate cancer progression” value is reported as “suppressed castration-resistant prostate cancer progression”. The “metastasis of murine mammary tumour cells” value in test [1] is given as “reduced metastasis”.

Values taken from patent US20220324803A1 (Teon Therapeutics, Inc., priority 2019, published 2022).
